A short description of assay [1]: Cytotoxicity against mouse B16F10 cells assessed as reduction in cell viability measured after 48 hrs by resazurin dye-based fluorometric analysis. The assay is classed as functional. Conditions: B16-F10, 48 h. In general terms: The colour change of resazurin is a common sign of viable cells or microbes.
The nature of assay [2]: Cytotoxicity against human MDA-MB-231 cells assessed as reduction in cell viability measured after 48 hrs by resazurin dye-based fluorometric analysis. The assay is classed as functional. Conditions: MDA-MB-231, 48 h.
The test system of a further assay is MES-SA. The experiment in a line: Ratio of EC50 for taxol-resistant human MES-SA/DX5 cells expressing MDR1 mRNA and P-gp to EC50 for taxol-sensitive human MES-SA cells. The assay is classed as functional.
The nature of assay [3]: Antiproliferative activity against human mitoxantrone-resistant HL60/MX2 cells. The assay is classed as functional, cell-based. Conditions: HL-60.
The nature of assay [4]: Cytotoxicity against human NCI-H292 cells assessed as reduction in cell viability measured after 48 hrs by resazurin dye-based fluorometric analysis. The assay is classed as functional. Particulars: NCI-H292, 48 h.
Assay [5] is described as follows: Cytotoxicity against human PC3 cells assessed as reduction in cell viability measured after 48 hrs by resazurin dye-based fluorometric analysis. The assay is classed as functional. Conditions: PC-3, 48 h.
Assay [6] deals with T1, Tubulin (Homo sapiens) (UniProt P68371+Q9H4B7+P0DPH7+P68366+Q13509+Q71U36+P04350+Q3ZCM7+P07437+P68363+Q9BQE3+Q6PEY2+Q13885+Q9BVA1+Q9BUF5). In words: Induction of microtubule depolymerization in HUVEC at 20 nM measured after 30 mins by DAPI-staining based immunofluorescence analysis. The assay is classed as cell-based.
A short description of assay [7]: Cytotoxicity against human HT-29 cells assessed as reduction in cell viability measured after 48 hrs by resazurin dye-based fluorometric analysis. The assay is classed as functional. Conditions: Homo sapiens, HT-29, 48 h.
Assay [8] in a line: Cytotoxicity against human HT-29 cells assessed as reduction in cell viability measured after 48 hrs by resazurin dye-based fluorometric analysis relative to control. The assay is classed as functional.
Assay [9] addresses T1, Tubulin (Homo sapiens). The experiment in a line: Induction of microtubule depolymerization in HUVEC at 1.5 to 5 uM by turbidity spectroscopic analysis. The assay is classed as cell-based.
A short description of assay [10]: Antiproliferative activity against taxol-resistant human MES-SA/Dx5 cells expressing MDR1 mRNA and P-gp. The assay is classed as functional, cell-based.
A further assay concerns HL-60. The experiment in a line: Ratio of EC50 for human mitoxantrone-sensitive HL60 cells to EC50 for human mitoxantrone-resistant HL60/MX2 cells. The assay is classed as functional.
A further assay has as its system Jurkat. The experiment in a line: Induction of apoptosis in human Jurkat cells assessed as caspase3 activation. The assay is classed as functional, cell-based.
Assay [11] can be described thus: Antiproliferative activity against human mitoxantrone-sensitive HL60 cells. The assay is classed as functional, cell-based. Particulars: HL-60.
The next assay concerns Trichophyton rubrum. In words: Fungicidal activity against Trichophyton rubrum isolate 2 measured after 48 hrs by broth dilution method. The assay is classed as functional. Particulars: isolate 2, 48 h. Background: Dilution methods test growth across graded concentrations, often in twofold steps.
The nature of assay [12]: Antifungal activity against Epidermophyton floccosum isolate 1 measured after 48 hrs by broth dilution method. The assay is classed as functional.
The nature of assay [13]: Antifungal activity against Trichophyton mentagrophytes isolate 2 measured after 48 hrs by broth dilution method. The assay is classed as functional.
The test system of assay [14] is Aspergillus fumigatus. The experiment in a line: Antifungal activity against Aspergillus fumigatus isolate 1 measured after 48 hrs by broth dilution method. The assay is classed as functional. Conditions: isolate 1, 48 h.
The subject of assay [15] is Trichophyton mentagrophytes. In words: Fungicidal activity against Trichophyton mentagrophytes isolate 1 measured after 48 hrs by broth dilution method. Particulars: isolate 1, 48 h. The assay is classed as functional.
In assay [16] the test system is Aspergillus fumigatus. In words: Antifungal activity against Aspergillus fumigatus isolate 2 measured after 48 hrs by broth dilution method. The assay is classed as functional. Particulars: isolate 2, 48 h.
Assay [17] can be described thus: Antifungal activity against Trichophyton rubrum isolate 1 measured after 48 hrs by broth dilution method. The assay is classed as functional.
A short description of assay [18]: Antifungal activity against Trichophyton rubrum isolate 2 measured after 48 hrs by broth dilution method. The assay is classed as functional.
A short description of assay [19]: Antifungal activity against Epidermophyton floccosum isolate 2 measured after 48 hrs by broth dilution method. The assay is classed as functional.
A short description of assay [20]: Antifungal activity against Trichophyton mentagrophytes isolate 1 measured after 48 hrs by broth dilution method. The assay is classed as functional.
Assay [21] is described as follows: Antifungal activity against Candida glabrata measured after 48 hrs by broth dilution method. Conditions: Nakaseomyces glabratus. The assay is classed as functional.

Converted amounts (≈) assume the structure as drawn. The source made the active and inactive calls. The rule behind the calls is not given here. Bounds are passed on as bounds.

For the molecule `CC(C)(C)c1ocnc1/C=c1\[nH]c(=O)/c(=C/c2ccccc2)[nH]c1=O.O=C(O)C(F)(F)F`, the concentration for a half-maximal effect (EC50) (commonly the midpoint of the concentration-response curve) in assay [1] is above 2000 nM; in [2], 41 nM; in assay [3] it was 14 nM; in [4], 19 nM; in assay [5], 20 nM; in [7] it was 21 to 22.2 nM. Also, the results for the “Ratio EC50” value with MES-SA and with HL-60 were 1.4 and 0.6, respectively. Besides, the outcome at Tubulin (Homo sapiens) [6] and at Tubulin (Homo sapiens) [9] was Active. For the same molecule, the “inhibition (INH)” value in assay [8] was 88%. Also, half-maximal inhibition in assay [10] (IC50) was put at 17 nM.

For `CC(C)(C)c1ocnc1/C=c1\[nH]c(=O)/c(=C/c2c(F)c(F)cc(F)c2F)[nH]c1=O`, the EC50 in assay [1] was above 2000 nM; in assay [2] it was 42 nM; in assay [4], 14 nM; in assay [5] it was 17 nM; in assay [7], 11 to 14.8 nM. Further, the entries for the “Ratio EC50” value in the assay with MES-SA and in the assay on HL-60 were 1.1 and 0.4, respectively. Further, the result on Tubulin (Homo sapiens) [6] and on Tubulin (Homo sapiens) [9] was Active. The IC50 – broadly, the concentration at which inhibition is half-maximal – in assay [10] came out at 14 nM.

Consider `O=C1c2c(O)ccc(O)c2C(=O)c2c(NCCNCCO)ccc(NCCNCCO)c21` [MITOXANTRONE], for which, in the assay on Jurkat, the Activity result is “Dose-dependent effect”. The EC50 in assay [3] lay in the range of 1100 to 4870 nM; in [11], 42 to 202 nM.

With `CC(C)(C)c1ocnc1/C=c1\[nH]c(=O)/c(=C/c2cccc(F)c2)[nH]c1=O`, the EC50 in assay [1] was 13 nM; in [2], 24 nM; in assay [3] it was 14 nM; in assay [4], 14 nM; in assay [7] it was 16.3 to 17.1 nM. The “Ratio EC50” value is reported as 1.2 with MES-SA and 0.5 in the assay on HL-60. In addition, the result at Tubulin (Homo sapiens) [6] and at Tubulin (Homo sapiens) [9] was Active. The molecule also displayed a 50% inhibitory concentration (IC50) in assay [10] of 14 nM.

For `COc1ccc(O)c(/C=c2\[nH]c(=O)/c(=C/c3nc[nH]c3C(C)(C)C)[nH]c2=O)c1.O=C(O)C(F)(F)F`, the 50% effective concentration (EC50) was 31 nM in assay [3], above 2000 nM in [7] and 32 nM in assay [11]. Also, the “inhibition (INH)” value in assay [8] is 25%. Moreover, in the assay on HL-60, the “Ratio EC50” value came out at 1.

As for `CC(C)(C)c1ocnc1/C=c1\[nH]c(=O)/c(=C/c2cc(F)cc(F)c2F)[nH]c1=O`, the EC50 is above 2000 nM in assay [1]; 52 nM in [2]; 19 nM in assay [3]; 16 nM in assay [4]; 21 nM in [5]; 11.4 to 17 nM in [7]. Further, the “Ratio EC50” value turned out to be 1 in the assay with MES-SA and 0.7 in the assay on HL-60. For the same molecule, the result on Tubulin (Homo sapiens) [6] and at Tubulin (Homo sapiens) [9] was Active. Besides, the half-maximal inhibitory concentration (IC50) in assay [10] was found to be 13 nM.

In the case of `CC(C)(C)c1[nH]cnc1/C=c1\[nH]c(=O)/c(=C/c2cc(Cl)ccc2[N+](=O)[O-])[nH]c1=O.O=C(O)C(F)(F)F`, the half-maximal effective concentration (EC50) was 19 nM in [3], 99.7 to 110 nM in assay [7] and 28 nM in assay [11]. In addition, the “inhibition (INH)” value in [8] was 86%. Also, the “Ratio EC50” value with HL-60 is 0.7.

For `C=CC(C)(C)c1[nH]cnc1/C=C1\NC(=O)[C@H](Cc2ccccc2)NC1=O`, the MFC (with Trichophyton rubrum; in [15]) was above 16 µg/mL throughout. In addition, the MIC (as a rule, the lowest concentration that inhibits growth of the organism) is above 16 µg/mL in assay [12]; above 16 µg/mL in assay [13]; above 16 µg/mL against Aspergillus fumigatus [14]; above 16 µg/mL in the assay with Aspergillus fumigatus [16]; above 16 µg/mL in assay [17]; 0.16 µg/mL (≈ 0.457 µM) in [18]. The minimum inhibitory concentration (MIC) in assay [19] was above 16 µg/mL; in assay [20], 16 µg/mL (≈ 45.7 µM); in assay [21] it was above 70 µg/mL. For the same molecule, in [7], the EC50 is 394 to 1600 nM. In addition, the “inhibition (INH)” value in assay [8] amounted to 87%.

These data come from ChEMBL document CHEMBL3881525, “Analogs of dehydrophenylahistins and their therapeutic use” (2007).
